Holding throughout (type): in vivo
The subject of assay [1] is Rice Armyworm (Mythimna Separata). Description: Efficacy test against rice armyworm, corn leaf dip. To be noted: 125 ppm, emulsifiable concentrate diluted with water, corn leaves immersed, second instar larvae, after 5 days, 25° C. The method, then: (§1) Test Examples of the pest control agent thus obtained according to the present invention are shown below. In respective Test Examples, the insecticidal rate (%) was determined by the following calculation equation. Insecticidal rate (%)=(number of dead pests/number of released pests)×100
The emulsifiable concentrate obtained according to Formulation of Formulation Example 2 was diluted with water so as to control the concentration of the compound to 125 ppm. Leaves of corn were immersed in this diluted solution for 30 seconds and then air-dried. The leaves were put in a petri dish on which a filter paper is laid, and then five second instar larvae of rice armyworm were inoculated. After covering the petri dish with a glass lid, the petri dish was placed in a temperature-controlled room at a temperature of 25° C. and a humidity of 65%. After 5 days, life and death were examined and the insecticidal rate was determined. The test was repeated twice.

In assay [2] the test system is Sweetpotato Whitefly (Bemisia Tabaci). Description: Efficacy test against sweetpotato whitefly, sprayed tomato leaf. The following applies: 125 ppm, emulsifiable concentrate diluted with water, adults (type B), after 2 days, 25° C. The method, then:
as §1
The emulsifiable concentrate obtained according to Formulation of Formulation Example 2 was diluted with water so as to control the concentration of the compound to 125 ppm. The diluted solution was sprayed over a tomato leaf obtained by cutting and then air-dried. Using absorbent cotton, the leaf was fixed to a flask so that a front surface of the leaf faces upward. Seven pairs of adults of sweetpotato whitefly (type B) were inoculated in this container, and the container was placed in a temperature-controlled room at a temperature of 25° C. and a humidity of 65%. After 2 days, life and death were examined and the insecticidal rate was determined. The test was repeated twice.

Assay [3] concerns Twospotted Spider Mite (Tetranychus Urticae Koch). The assay can be described thus: Efficacy test against twospotted spider mite, spray on kidney bean plant. To be noted: 125 ppm, wettable powder diluted with water, sprayed, female adults with resistance to an organophosphorus agent on kidney bean, after 3 days. As for the experimental part: The wettable powder obtained according to Formulation of Formulation Example 1 was diluted with water so as to control the concentration of the compound to 125 ppm. Seventeen female adults of twospotted spider mite with resistance to an organophosphorus agent were inoculated on a first true leaf of a kidney bean plant (approximately 7 to 10 days after sprouting) sown in a 3 sun/size pot (9 cm). The diluted solution was sprayed. The pot was placed in a temperature-controlled room at a temperature of 25° C. and a humidity of 65%. After 3 days, the adulticidal rate was examined. The test was repeated twice.

The test system of assay [4] is Cotton Aphid (Aphis Gossypii). Description: Efficacy test against cotton aphid, spray on cucumber plant. To be noted: 125 ppm, emulsifiable concentrate diluted with water, sprayed over cucumber plant with nymphs, after 5 days, 25° C. As for the experimental part:
as §1
The emulsifiable concentrate obtained according to Formulation of Formulation Example 2 was diluted with water so as to control the concentration of the compound to 125 ppm. Adults of cotton aphids were inoculated to a cucumber plant (approximately 10 days after sprouting) sown in a 3 sun/size pot (9 cm). After 1 day, adult aphids were removed and the diluted solution was sprayed over the cucumber plant on which delivered nymphs are parasitic. The pot was placed in a temperature-controlled room at a temperature of 25° C. and a humidity of 65%. After 5 days, life and death were examined and the insecticidal rate was determined. The test was repeated twice.

Data on 35 compounds can be found in patent publication US9012493B2, “1-heterodiene derivative and pest control agent” (Nippon Soda Co., Ltd., priority 2009, dated 2015).

For `CC(C)=C1CCC(=CSc2ccc(F)cc2)C(=Nc2ccc(C)cc2)S1` (mixture of isomers) [Compound 6-2], the insecticidal rate in assay [1] and in assay [2] was 100% in each case. The compound also showed an adulticidal rate in assay [3] of 100%.

On to `C=C1SC(=Nc2ccc(C)cc2)C(=CSc2cccnc2)CC1(C)C` (mixture of isomers) [Compound 6-6], for which the insecticidal rate in assay [1] and in assay [2] was 100% throughout. In assay [3], this compound came in with an adulticidal rate of 100%.

With `C=C1SC(=Nc2ccc(C)cc2)C(=CSc2ccc(F)cc2F)CC1(C)C` (mixture of isomers) [Compound 6-7], the insecticidal rate in assay [1] and in assay [2] was 100% each time. The adulticidal rate in assay [3] was 100%.

On to `C=C1SC(=Nc2ccccc2OC)C(=CSc2ccccc2)CC1(C)C` [Compound 2-27], for which the insecticidal rate in assay [1] and in assay [2] was 100% throughout. In assay [3], this compound yielded an adulticidal rate of 100%.

`C=C1SC(=Nc2cc(OC)cc(OC)c2)C(=CSc2ccccc2)CC1(C)C` [Compound 2-38] displayed an insecticidal rate in assay [2] of 100%. Also, the adulticidal rate in assay [3] amounted to 100%.

With `C=C1CCC(=CSc2ccccc2)C(=Nc2ccsc2)S1` [Compound 2-52], the insecticidal rate in assay [1], in assay [2] and in assay [4] was 100% in each case.

As for `C=C1SC(=Nc2ccccc2)C(=CSc2ccccc2)CC1(C)C` [Compound 2-53], the insecticidal rate in assay [1], in assay [2] and in assay [4] was 100% in each case.

With `C=C1SC(=Nc2ccccc2)C(=CSc2ccc(F)cc2)CC1(C)C` [Compound 2-54], the insecticidal rate in assay [1], in assay [2] and in assay [4] was 100% in each case.

`C=C1SC(=Nc2ccc(OC)cc2)C(=COc2ccccc2)CC1(C)C` [Compound 2-55]: the insecticidal rate in assay [1], in assay [2] and in assay [4] was 100% throughout.

On to `C=C1SC(=Nc2ccc(C)cc2)C(=CSc2ccc(F)cc2)CC12CCOCC2` [Compound 2-57], for which the insecticidal rate in assay [1], in assay [2] and in assay [4] was 100% in each case.

For `C=C1SC(=Nc2ccc(OC)cc2)C(=CSC2CCCC2)CC1(C)C` [Compound 2-58], the insecticidal rate in assay [1], in assay [2] and in assay [4] was 100% in each case.

On to `C=C1SC(=Nc2ccc(C)cc2OC)C(=CSc2ccccc2)CC1(C)C` [Compound 2-59], for which the insecticidal rate in assay [1] and in assay [2] was 100% throughout. Further, the adulticidal rate in assay [3] is recorded as 100%.

As to `C=C1SC(=Nc2c(C)cccc2C)C(=CSc2ccccc2)CC1(C)C` [Compound 2-62], the insecticidal rate in assay [1], in assay [2] and in assay [4] was 100% each time.

Regarding `C=C1SC(=Nc2c(C)cc(C)cc2C)C(=CSc2ccccc2)CC1(C)C` [Compound 2-63], the insecticidal rate in assay [1], in assay [2] and in assay [4] was 100% each time.

For `C=C1SC(=Nc2c(F)cc(OC)cc2F)C(=CSc2ccccc2)CC1(C)C` [Compound 2-65], the insecticidal rate in assay [1], in assay [2] and in assay [4] was 100% throughout.

As for `C=C1SC(=Nc2c(C)cc(C)cc2C)C(=CSc2cccs2)CC1(C)C` [Compound 2-66], the insecticidal rate in assay [1], in assay [2] and in assay [4] was 100% each time.

As for `C=C1SC(=Nc2c(C)cc(OC)cc2C)C(=CSc2ccccc2)CC1(C)C` [Compound 2-67], the insecticidal rate in assay [1], in assay [2] and in assay [4] was 100% in each case.

Turning to `C=C1SC(=Nc2ccc(C)cc2)C(=CSc2cccc(Cl)n2)CC1(C)C` [Compound 2-91], the insecticidal rate in assay [1], in assay [2] and in assay [4] was 100% in each case.

`C=C1SC(=Nc2ccc(C)cc2)C(=CSc2ccncc2)CC1(C)C` [Compound 2-92]: the insecticidal rate in assay [1] and in assay [2] was 100% throughout. In assay [3], this compound returned an adulticidal rate of 100%.

Regarding `C=C1SC(=Nc2ccc(C)cc2)C(=CSc2ccoc2C)CC1(C)C` [Compound 2-93], the insecticidal rate in assay [1], in assay [2] and in assay [4] was 100% in each case.

`C=C1SC(=Nc2ccc(C)cc2)C(=CSc2ccc(N(C)C)cc2)CC1(C)C` [Compound 2-97]: the insecticidal rate in assay [1], in assay [2] and in assay [4] was 100% each time.

For `C=C1SC(=Nc2ccc(C)cc2)C(=CSc2nccc(C(F)(F)F)n2)CC1(C)C` [Compound 2-98], the insecticidal rate in assay [1], in assay [2] and in assay [4] was 100% each time.

As for `C=C1SC(=Nc2ccc(C)cc2)C(=CSc2cccc(Br)c2)CC1(C)C` [Compound 2-101], the insecticidal rate in assay [1] and in assay [2] was 100% throughout. This compound returned an adulticidal rate in assay [3] of 100%.

On to `C=C1SC(=Nc2ccc(C)cc2)C(=CSc2ccccc2Br)CC1(C)C` [Compound 2-102], for which the insecticidal rate in assay [1] and in assay [2] was 100% in each case. Besides, the adulticidal rate in assay [3] is recorded as 100%.

In the case of `C=C1SC(=Nc2ccc(C)cc2)C(=CSc2sccc2C)CC1(C)C` [Compound 2-104], the insecticidal rate in assay [1] and in assay [2] was 100% in each case. In addition, in assay [3], the adulticidal rate is reported as 100%.

As for `C=C1SC(=Nc2ccc(C)cc2)C(=CSc2cccc(C(C)=O)c2)CC1(C)C` [Compound 2-105], in assay [1], the insecticidal rate was 100%. In assay [3], the adulticidal rate is 100%.

Compound `C=C1SC(=Nc2ccc(C)cc2)C(=CSc2ccccc2C)CC1(C)C` [Compound 2-111] yielded an insecticidal rate in assay [1] of 100%. The adulticidal rate in assay [3] came to 100%.

For `C=C1SC(=Nc2ccc(C)cc2)C(=CSCc2ccccc2)CC1(C)C` [Compound 2-112], the insecticidal rate in assay [1], in assay [2] and in assay [4] was 100% each time.

As to `C=C1SC(=Nc2ccc(C)cc2)C(=CSc2ccc3ccccc3n2)CC1(C)C` [Compound 2-113], in assay [1], the insecticidal rate came to 100%. Besides, the adulticidal rate in assay [3] is on record as 100%.

On to `C=C1SC(=Nc2ccc(C)cc2)C(=CSc2nccc(C)n2)CC1(C)C` [Compound 2-121], for which the insecticidal rate in assay [1], in assay [2] and in assay [4] was 100% in each case.

With `C#CCSC=C1CC(C)(C)C(=C)SC1=Nc1ccc(C)cc1` [Compound 2-122], the insecticidal rate in assay [1], in assay [2] and in assay [4] was 100% in each case.

Take `C=C1SC(=Nc2ccc(OC)cc2)C(=CSc2nccc(C)n2)CC1(C)C` [Compound 2-127]: the insecticidal rate in assay [1], in assay [2] and in assay [4] was 100% throughout.

For the compound `C=C1SC(=Nc2ccccc2)C(=CSc2nccc(C)n2)CC1(C)C` [Compound 2-128], the insecticidal rate in assay [1], in assay [2] and in assay [4] was 100% throughout.

For `C=C1SC(=Nc2ccccc2)C(=CSc2cccs2)CC1(C)C` [Compound 2-129], the insecticidal rate in assay [1], in assay [2] and in assay [4] was 100% throughout.

Regarding `C=C1SC(=Nc2ccc(C)c(C)c2)C(=CSc2nccc(C)n2)CC1(C)C` [Compound 2-132], the insecticidal rate in assay [1], in assay [2] and in assay [4] was 100% in each case.
